A short description of data set [1]: Dispersability of diarylethene compounds in polymer solution (photochromic thin film composition). It counts as physicochemical. Set-up: key: ◯ = clear solution at RT; Δ = medium solubility; X = insoluble, phase separation and unclear solution. Particulars: 10 wt. % diarylethene, chloroform + trichloroethylene, room temperature. An excerpt:
Solubilities of diarylethene compounds of the present invention and known diarylethene compounds were compared by dispersing in polycarbonate (PC) solution or fluorinated polyethylene.
Compared diarylethene compounds are 1-(6′-(5-phenylisoxazol) 2′-methylbenzo[b]thiophen-3′-yl)-2-(2″-methylbenzo[b]thiophen-3′-yl)hexafluorocyclopentene (PIMBTF6) prepared in Example 4 and 1,2-bis(2-methylbenzo[b]thiophen-3′-yl)hexafluorocyclopentene (BTF6) and 1-(6′-acetyl-2′-methylbenzo[b]thiophen-3′-yl)-2-(2″-methylbenzo[b]thiophen-3′-yl)hexafluorocyclopentene (AMBTF6) which are disclosed. Each thin film composition was prepared by dissolving 0.03 g (10 wt. %) of diarylethene compound and 0.27 g (90 wt. %) of polycarbonate (PC) or fluorinated polyethylene in a mixture of 1.2 g of chloroform and 1.2 g of trichloroethylene and stirring at room temperature for 6 hrs.

Data set [2] in a line: Dispersability of diarylethene compounds in fluorinated diacrylate monomer (TFBDA) or THF. It counts as physicochemical. Set-up: key: ◯ = clear solution at RT; Δ = medium solubility; X = insoluble, phase separation and unclear solution. As to conditions: room temperature. The method, then: Solubilities of diarylethene compounds of the present invention and known diarylethene compounds were compared by dispersing in fluorinated diacrylate monomer (TFBDA) or THF.
The same diarylethene compounds used in Examples 6-7 and Comparative Examples 1-4 are used to obtain the desired composition. Each thin film composition was prepared by dissolving 0.01 g (10 wt. %) of diarylethene compound and 0.002 g (2 wt. %) of 1-hydroxycyclohexyl phenyl ketone as photopolymerization initiator in 0.088 g (88 wt. %) of TFBDA and stirring at room temperature for 30 min.

The mark [3] stands for this setting: 90 wt. % fluorinated polyethylene (Xeonex 480).

Results on five compounds are retold here after US6846934B2, “Photochromic diarylethene substituted with isoxazole group” (Korea Research Institute of Chemical Technology, priority 2001, dated 2005).

Turning to `CC(=O)c1ccc2c(C3=C(c4c(C)sc5ccccc45)C(F)(F)C(F)(F)C3(F)F)c(C)sc2c1` [AMBTF6, 1-(6′-acetyl-2′-methylbenzo[b]thiophen-3′-yl)-2-(2″-methylbenzo[b]thiophen-3′-yl)hexafluorocyclopentene], the Dispersability result in data set [1] (setting [3]) was “X”; in data set [1] (90 wt. % polycarbonate (PC)) it was “X”; in data set [2] (10 wt. % diarylethene in TFBDA), “Δ”; in data set [2] (solvent THF), “◯”.
For the compound `Cc1sc2ccccc2c1C1=C(c2c(C)sc3ccccc23)C(F)(F)C(F)(F)C1(F)F` [BTF6, 1,2-bis(2-methylbenzo[b]thiophen-3′-yl)hexafluorocyclopentene], the Dispersability result in data set [1] (setting [3]) was “X”; in data set [1] (90 wt. % polycarbonate (PC)), “◯”; in data set [2] (10 wt. % diarylethene in TFBDA) it was “X”.
With `Cc1sc2cc(-c3cc(-c4ccccc4)on3)ccc2c1C1=C(c2c(C)sc3cc(-c4cc(-c5ccccc5)on4)ccc23)C(F)(F)C(F)(F)C1(F)F` [DPIMBTF6, di(6′-phenylisoxazol-2′-methylbenzo[b]thiophen-3′-yl)hexafluorocyclopentene], the Dispersability result in data set [2] (10 wt. % diarylethene in TFBDA) is “◯”.
Turning to `Cc1sc2ccccc2c1C1=C(c2c(C)sc3cc(-c4cc(CO)on4)ccc23)C(F)(F)C(F)(F)C1(F)F` [IMBTF6, 1-(6′-(5-hydroxymethylisoxazol)-2′-methylbenzo[b]thiophen-3′-yl)-2-(2″-methylbenzo[b]thiophen-3′-yl)hexafluorocyclopentene], the Dispersability result is “X” in data set [2] (10 wt. % diarylethene in TFBDA) and “◯” in data set [2] (solvent THF).
Turning to `Cc1sc2ccccc2c1C1=C(c2c(C)sc3cc(-c4cc(-c5ccccc5)on4)ccc23)C(F)(F)C(F)(F)C1(F)F` [PIMBTF6, 1-(6′-(5-phenylisoxazol)-2′-methylbenzo[b]thiophen-3′-yl)-2-(2″-methylbenzo[b]thiophen-3′-yl)hexafluorocyclopentene], the Dispersability entry in data set [1] (setting [3]) was “Δ”; in data set [1] (90 wt. % polycarbonate (PC)), “◯”; in data set [2] (10 wt. % diarylethene in TFBDA), “◯”; in data set [2] (solvent THF), “◯”.
